How the values were obtained:
rat bladder [1] = experiment: Evaluation of bladder overactivity in rodents (urodynamics), Example 4; assay type: in vivo, Sprague-Dawley rats; details: intravesical infusion; PS 30 mg/mL, toxic factor 15 mg/mL, or PPS 10 mg/ml + toxic factor 15 mg/ml, followed by 400 mM KCl for 30 minutes
From the text: (§1) After a few days of acclimatization, three groups (n=9 each) of adult male Sprague-Dawley rats (325-350 g) underwent urodynamics evaluation of bladder hyperactivity before and after intravesical infusion of a test substance (PS, urinary toxic factor, or toxic factor plus PPS) followed by intravesical KCl.^4
The procedure was as follows: The rats were anesthetized with a subcutaneous injection of urethane (1.2 g/Kg) and a 1 cm incision made along the centerline of the lower ventral abdomen. […] During the continuous filling bladder cystometry, the pressure was recorded with the transducer using the program LabView (National Instruments, TX).
To induce hyperactivity, the bladder was first infused with warm 0.9% saline (37° C.) at 40 μL/min (2.4 mL/hr) and at least 20 minutes of stable voiding cycles recorded during infusion. The pressure threshold (PT, pressure at which voiding initializes) and peak pressure (PP, pressure maximum or amplitude of bladder contractions) were recorded. Frequency of contractions and inter-contractile interval (ICI) were recorded, along with the percentage of non-voiding contractions (% NVC, contractions where the PP is greater than 2 cm H2O and less than the TP, thus not resulting in a void). […]

rat bladder [2] = experiment: Evaluation of bladder overactivity in rodents (urodynamics), Example 2; assay type: in vivo, Sprague-Dawley rats; details: intravesical infusion; TF 15 mg/mL alone or mixed 1:1 with unmodified THP or THP-d 10 mg/ml, followed by 400 mM KCl for 30 min
Procedure: After a few days of acclimatization, adult male SD rats underwent urodynamics evaluation of bladder hyperactivity before and after intravesical infusion of a test substance^8 (TF or TF plus unmodified THP or TF plus THP-d) followed by intravesical KCl. The procedure for the in vivo rat study was performed as described previously.^23
After baseline measurements of pressure threshold, peak pressure, frequency of contractions, inter-contractile interval, and percentage of nonvoiding contractions (NVC) were recorded as previously described,^23 rats were infused with the test solution. One group of animals received an infusion of TF (15 mg/mL). To test the effect of desialylation on the ability of THP to attenuate the bladder hyperactivity induced by TF and KCl, second and third groups of animals received an infusion of a mixture of unmodified THP or THP-d 10 mg/ml and TF (15 mg/ml) mixed in a ratio of 1:1.
Infusion of the test solution was followed by infusion of 400 mM KCl for 30 min^8 and urodynamics measurements were repeated.

rat bladder [3] = experiment: Evaluation of bladder overactivity in rodents (urodynamics, KCl infusion after test substance), Example 1; assay type: in vivo, Sprague-Dawley rats; details: intravesical infusion; TF 15 mg/mL or THP 10 mg/ml + TF 15 mg/ml 1:1, followed by 400 mM KCl for 30 minutes
From the text: as §1, with “two” for “three”, “(TF” for “(PS, urinary toxic factor,”, “TF” for “toxic factor”, “THP)” for “PPS)”, “KCl.^8 The procedure was as follows.” for “KCl.^4”
The rats were anesthetized with a subcutaneous injection of urethane (1.2 g/Kg) and a 1 cm incision was made along the centerline of the lower ventral abdomen. Once the bladder was exteriorized, a 22 gauge (0.7 mm) catheter (Intracath, Becton-Dickinson, OH) was inserted into the bladder dome and sutured in place using a purse string suture with 4.0 tapered prolene suture. The bladder was returned to the abdomen, with the line escaping through the incision. […] During the continuous filling bladder cystometry, the pressure was recorded with the transducer using the program LabView (National Instruments, TX).
To induce hyperactivity, the bladder was first infused with warm (37° C.) 0.9% saline or 400 mM KCl (29.8 mg/mL, Abbott Laboratories, IL) at 40 μL/min (2.4 mL/hr) and at least 20 minutes of stable voiding cycles were recorded during infusion. The pressure threshold (PT, pressure at which voiding initializes) and peak pressure (PP, pressure maximum or amplitude of bladder contractions) were recorded. […]

[4] = system: human bladder cells (HTB4); experiment: Cytotoxicity assay, unmodified versus desialylated THP, Example 2
Procedure: The TF obtained from 2 different pooled urine samples (TF1, TF2) was tested for cytotoxicity using the CellTiter96 Aqueous One Solution Proliferation Assay™ (Promega Corp, Madison, Wis.). Rat urothelial target cells and human HTB4 urothelial cells were plated in 96-well tissue culture plates (Nunclon™) in triplicate (50,000 cells/well). Cells had been maintained in Ham's-M199 tissue culture media supplemented with 10% fetal calf serum (FCS)+antibiotics (Pen-Strep).
For cytotoxicity assay, cells were harvested from seed flasks, washed free of trypsin-EDTA, and resuspended in DME media (without phenol red indicator) −1% FCS (assay media). An aliquot of the cell suspension was counted in a hemocytometer and diluted with assay media to a concentration of 0.5×10^6 cells/ml, from which 100 μl (5×10^4 cells) were added to each well in a 96-well microtiter plate. […] Dose response data was determined beforehand for the TF preparations. […]
After overnight incubation at 37° C., the target cells were washed twice with DME alone (200 μl/well) and fresh DME added to each well (90 μl). Then a tetrazolium compound (MTS-Owen's Reagent) combined with an electron coupling reagent (PES) was added (10 μl/well) per kit protocol and absorbance measured in a plate reader after 30 min incubation at 490 nm and at 630 nm after blanking the plate to DME media containing the tetrazolium compound. […]

[5] = THP zeta potential (mV) measurements; assay type: physicochemical; details: 0.01M NaCl buffer, pH 7.0 at 25° C.; n=6 in each group
Procedure: Surface charge properties (zeta potential) are measured for THP samples from patients (n=6) and controls (n=6). THP (Biomedical Technologies, Inc.) and fetuin and asialofetuin (Sigma Chemical Co.) standards (50 μg) are similarly measured. Zeta potential and size measurements are made with a Zetasizer Nano ZS instrument and a CGS-3 Goniometer system (Malvern Instruments Inc., Southborough, Mass.) with ancillary software version 4.0. All zeta potential measurements are conducted on rehydrated samples in 0.01M NaCl buffer, pH 7.0 at 25° C., after centrifugation followed by filtration ([…]) to remove any aggregates. Measurements are made in triplicate and the results analyzed by Student's t test for significance.

For `[Cl-].[K+]` [KCl], the “NVC/minute (nonvoiding contractions)” value (rat bladder [1]) was 0.25 ± 0.064 NVC/minute, the “NVC/minute (nonvoiding contractions)” value (rat bladder [2]) was 0.25 ± 0.064 NVC/minute and the “NVC/minute (nonvoiding contractions)” value (rat bladder [3]) was 0.25 ± 0.064 NVC/minute.
In the case of “THP-d: THP desialylated by mild acid hydrolysis in 2.5M acetic acid, 3 hr at 82° C.”, the “Average cytotoxicity (%)” value ([4]; HTB4 cells 5 × 10^4/well, THP or THP-d mixed with TF 60 min, overnight incubation, relative to media controls) was 13.4%.
Compound “control THP: THP isolated from urine of healthy control subjects” has a zeta potential [5] of −28.0±2.4 mV.
With protamine sulfate the “Cytotoxicity LD50” value ([4]; footnote to Table 3, known cytotoxic agent) was “†Cytotoxicity of protamine sulfate, a known cytotoxic agent: LD50 = ~20 μg” and the “NVC/minute (nonvoiding contractions)” value (rat bladder [1]) was 1.733 ± 0.55 NVC/minute.
